In patent US11926579B1, “8-(4-methoxybenzylideneamino)naphthalene-1,3-disulfonic acid as an antioxidant compound” (KING FAISAL UNIVERSITY, priority 2023, dated 2024):

Assay: DPPH radical scavenging antioxidant test
Format: biochemical
Conditions: for Inhibition (radical scavenging inhibition) / A (absorbance): DPPH 0.2 mL (0.75 mM), compound 3 μM in ethanol, 30 min incubation in the dark; for A (absorbance): read at 517 nm against a blank
Method: The antioxidant properties of the 8-(4-methoxybenzylideneamino)naphthalene-1,3-disulfonic acid were studied by adding 0.2 mL DPPH (0.75 mM)) to compound 8-(4-methoxybenzylideneamino) naphthalene-1,3 -di sulfonic acid (III) (3 μM) in ethanol. After 30 min of incubation in the dark, the absorbance was read against a blank at 517 nm. Ascorbic acid (vitamin C) was used as standard antioxidants (positive control). A blank sample was prepared by 0.2 ml of DPPH in 3 ml ethanol. A negative control sample was run using ethanol instead of the sample. The radical scavenging inhibition was calculated using the following equation: […]

Row | Compound | Inhibition (radical scavenging inhibition) (517 nm) [%] | A (absorbance) | antioxidant potential (DPPH), in words (DPPH in vitro test, 517 nm, vitamin C as positive control)
1 | O=C1O[C@H]([C@@H](O)CO)C(O)=C1O [vit c, Ascorbic acid, reference compound] | 74 | 0.12 | 
2 | COc1ccc(/C=N/c2cccc3cc(S(=O)(=O)O)cc(S(=O)(=O)O)c23)cc1 [Product III, 8-(4-methoxybenzylideneamino)naphthalene-1,3-disulfonic acid] | 50 | 0.22 | high potential as an antioxidant compared to vitamin C
